Drawing on ChEMBL document CHEMBL5625234, “Magic shotgun approach to anti-inflammatory pharmacotherapy: Synthesis of novel thienopyrimidine monomers/heterodimer as dual COX-2 and 15-LOX inhibitors endowed with potent antioxidant activity” (Eur J Med Chem, 2023), this text covers IC50 and Ratio IC50 for 21 molecules.

For assay [1], the target named is T1, Prostaglandin G/H synthase 1 (Ovis aries, UniProt P05979).
T1 sequence (P05979 whole entry): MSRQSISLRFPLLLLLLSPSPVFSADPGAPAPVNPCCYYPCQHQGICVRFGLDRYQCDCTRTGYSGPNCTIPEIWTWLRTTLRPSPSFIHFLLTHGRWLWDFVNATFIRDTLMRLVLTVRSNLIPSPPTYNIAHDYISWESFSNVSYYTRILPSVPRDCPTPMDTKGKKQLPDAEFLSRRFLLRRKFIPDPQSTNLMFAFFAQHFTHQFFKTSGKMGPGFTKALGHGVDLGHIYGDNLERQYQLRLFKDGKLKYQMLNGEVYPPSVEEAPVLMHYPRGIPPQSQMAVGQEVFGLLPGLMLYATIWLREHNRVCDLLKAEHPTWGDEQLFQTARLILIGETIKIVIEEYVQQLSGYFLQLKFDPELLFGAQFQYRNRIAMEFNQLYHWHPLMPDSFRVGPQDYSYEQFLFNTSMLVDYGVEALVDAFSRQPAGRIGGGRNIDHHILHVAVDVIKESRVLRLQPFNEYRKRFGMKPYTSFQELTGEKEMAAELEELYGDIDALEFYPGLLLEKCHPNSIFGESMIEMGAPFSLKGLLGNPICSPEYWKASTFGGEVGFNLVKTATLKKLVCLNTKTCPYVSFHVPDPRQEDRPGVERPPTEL
In words: Inhibition of ovine COX-1 using arachidonic acid as substrate preincubated for 10 mins followed by substrate addition and measured after 2 mins by ELISA. For orientation: In an ELISA, binding on a coated surface is turned into a signal by an enzyme label.

A short description of assay [2]: Inhibition of soybean 15-LOX using arachidonic acid/linolenic acid as substrate preincubated for 5 mins followed by substrate addition and measured after 10 mins by absorbance based assay. Also noted: species or system Glycine max.
For assay [3], the system named is RAW264.7. The assay can be described thus: cells. The following applies: Mus musculus.
Assay [4] concerns RAW264.7. The assay can be described thus: cells. The following applies: Mus musculus. This is another data set of the same source.
A short description of assay [5]: Inhibition of soybean 15-LOX using arachidonic acid as substrate preincubated with compound followed by substrate addition and measured after 5 mins by absorbance based microplate reader. Set-up: species or system Glycine max.
In assay [6] the target is T2, Prostaglandin G/H synthase 2 (Ovis aries, UniProt P79208).
T2 sequence (P79208 whole entry): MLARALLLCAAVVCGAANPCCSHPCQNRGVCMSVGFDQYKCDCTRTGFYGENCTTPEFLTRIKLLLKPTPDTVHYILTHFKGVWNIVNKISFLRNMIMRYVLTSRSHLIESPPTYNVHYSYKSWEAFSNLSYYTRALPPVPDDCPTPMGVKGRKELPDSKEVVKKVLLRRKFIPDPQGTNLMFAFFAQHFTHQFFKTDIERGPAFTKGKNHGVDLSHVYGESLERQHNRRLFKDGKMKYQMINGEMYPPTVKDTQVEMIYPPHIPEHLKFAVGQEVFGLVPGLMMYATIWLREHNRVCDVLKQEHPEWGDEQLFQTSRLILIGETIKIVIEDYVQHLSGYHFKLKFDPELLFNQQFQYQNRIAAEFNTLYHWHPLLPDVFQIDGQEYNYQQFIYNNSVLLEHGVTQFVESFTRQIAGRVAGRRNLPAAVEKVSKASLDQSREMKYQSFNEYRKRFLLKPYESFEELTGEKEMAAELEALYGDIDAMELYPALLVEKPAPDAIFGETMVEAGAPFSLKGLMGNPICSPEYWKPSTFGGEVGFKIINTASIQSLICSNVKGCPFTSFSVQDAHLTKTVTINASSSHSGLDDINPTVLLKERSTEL
In words: Inhibition of ovine COX-2 using arachidonic acid as substrate preincubated for 5 mins followed by substrate addition and measured after 2 mins by colorimetric assay.

The species named for assay [7] is Ovis aries. The assay can be described thus: Selectivity index, ratio of IC50 for inhibition of ovine COX-1 to IC50 for inhibition of ovine COX-2.
Assay [8] concerns the target T3, Polyunsaturated fatty acid lipoxygenase ALOX15 (Homo sapiens, UniProt P16050).
T3 sequence (P16050 whole entry): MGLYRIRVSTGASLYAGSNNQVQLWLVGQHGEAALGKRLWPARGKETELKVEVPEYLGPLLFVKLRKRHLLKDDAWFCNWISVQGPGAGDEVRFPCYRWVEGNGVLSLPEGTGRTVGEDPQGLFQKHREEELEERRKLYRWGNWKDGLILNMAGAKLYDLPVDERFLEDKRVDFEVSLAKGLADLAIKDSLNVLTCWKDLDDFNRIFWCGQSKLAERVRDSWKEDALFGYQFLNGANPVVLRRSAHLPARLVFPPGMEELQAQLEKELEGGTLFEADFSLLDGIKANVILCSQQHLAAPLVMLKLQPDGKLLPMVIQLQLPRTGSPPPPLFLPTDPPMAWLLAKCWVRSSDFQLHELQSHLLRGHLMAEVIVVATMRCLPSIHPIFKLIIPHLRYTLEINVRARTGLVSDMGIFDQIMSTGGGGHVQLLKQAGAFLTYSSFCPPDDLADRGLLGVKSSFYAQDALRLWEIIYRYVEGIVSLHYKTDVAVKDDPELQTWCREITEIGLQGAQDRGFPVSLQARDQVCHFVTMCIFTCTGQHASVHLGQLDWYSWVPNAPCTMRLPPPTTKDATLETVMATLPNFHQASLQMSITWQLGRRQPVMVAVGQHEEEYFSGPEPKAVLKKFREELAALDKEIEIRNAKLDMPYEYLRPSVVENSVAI
In words: Inhibition of 15-LOX (unknown origin) using linoleic acid as substrate incubated for 5 mins by absorbance based assay.

Assay [9] concerns RAW264.7. In words: cells. The following applies: Mus musculus. The source holds these as a separate data set.
For assay [10], the system named is RAW264.7. In words: cells. The following applies: Mus musculus. This is another data set of the same source.
For assay [11], the target named is T4, Prostaglandin G/H synthase 2 (Homo sapiens, UniProt P35354).
T4 sequence (P35354 whole entry): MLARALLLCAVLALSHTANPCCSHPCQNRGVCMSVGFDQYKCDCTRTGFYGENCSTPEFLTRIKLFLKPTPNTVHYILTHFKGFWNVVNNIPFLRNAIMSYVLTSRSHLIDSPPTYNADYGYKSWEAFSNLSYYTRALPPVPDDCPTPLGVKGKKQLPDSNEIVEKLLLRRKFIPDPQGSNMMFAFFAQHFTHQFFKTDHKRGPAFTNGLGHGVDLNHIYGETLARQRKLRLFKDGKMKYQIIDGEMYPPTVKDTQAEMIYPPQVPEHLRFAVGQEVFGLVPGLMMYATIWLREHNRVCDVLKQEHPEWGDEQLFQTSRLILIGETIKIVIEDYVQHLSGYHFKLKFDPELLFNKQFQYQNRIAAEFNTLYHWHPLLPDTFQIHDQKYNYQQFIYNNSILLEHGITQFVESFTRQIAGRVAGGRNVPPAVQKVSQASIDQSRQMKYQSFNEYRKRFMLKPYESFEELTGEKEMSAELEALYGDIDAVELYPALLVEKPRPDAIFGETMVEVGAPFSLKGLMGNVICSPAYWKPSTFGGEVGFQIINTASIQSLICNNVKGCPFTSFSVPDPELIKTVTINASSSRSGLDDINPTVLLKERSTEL
In words: Inhibition of human COX-2 using arachidonic acid as substrate incubated for 30 secs by ELISA.

The target in assay [12] is COX-1/COX-2 (Homo sapiens) (UniProt P35354+P23219). In words: Selectivity index, ratio of IC50 for inhibition of human COX-1 to IC50 for inhibition of human COX-2. Format: protein assay.
Chain of COX-1/COX-2 (Homo sapiens) (P23219 whole entry, looked up, one chain of several): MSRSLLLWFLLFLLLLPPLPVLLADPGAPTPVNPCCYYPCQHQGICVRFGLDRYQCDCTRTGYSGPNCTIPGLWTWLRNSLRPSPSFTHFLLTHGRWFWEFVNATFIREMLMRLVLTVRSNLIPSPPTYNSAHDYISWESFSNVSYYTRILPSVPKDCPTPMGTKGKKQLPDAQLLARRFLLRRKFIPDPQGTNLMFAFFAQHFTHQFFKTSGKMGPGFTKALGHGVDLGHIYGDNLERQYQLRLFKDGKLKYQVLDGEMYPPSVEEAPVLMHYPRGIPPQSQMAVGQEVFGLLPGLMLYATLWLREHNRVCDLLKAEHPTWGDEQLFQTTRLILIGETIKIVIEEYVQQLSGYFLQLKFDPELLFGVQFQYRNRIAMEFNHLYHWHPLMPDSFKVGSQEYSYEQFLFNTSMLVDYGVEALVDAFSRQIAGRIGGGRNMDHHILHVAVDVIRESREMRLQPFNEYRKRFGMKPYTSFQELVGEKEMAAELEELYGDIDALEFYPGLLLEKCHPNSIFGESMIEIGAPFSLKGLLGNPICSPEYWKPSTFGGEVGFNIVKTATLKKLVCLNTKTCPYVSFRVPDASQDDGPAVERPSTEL
For assay [13], the target named is T4, Prostaglandin G/H synthase 2. In words: Inhibition of human COX-2.

Some results are limits rather than exact numbers.

Regarding `O=[N+]([O-])c1ccc(-c2nc(Nc3cccc(Br)c3)c3c4c(sc3n2)CCCC4)cc1`, the IC50 (usually the concentration needed to halve the response being measured) is 6.49 µM in assay [1], 3.99 µM in assay [2] and > 100 µM in assay [3].
Consider `COc1cc(/C=C2\S/C(=N/c3nnc(C)s3)NC2=O)cc(OC)c1OC`, for which the IC50 in [1] came out at 12.3 µM; in assay [2] it was 10.9 µM.
As to `Cc1ccc(Nc2nc(-c3ccc([N+](=O)[O-])cc3)nc3sc4c(c23)CCCC4)cc1`, the IC50 is 8.2 µM in assay [1], 2.76 µM in [2] and > 100 µM in [3].
As to `Clc1ccc(-c2nc(Nc3ccc(Br)cc3)c3c4c(sc3n2)CCCC4)cc1`, the IC50 was 9.12 µM in assay [1], 2.11 µM in assay [2] and > 100 µM in assay [3].
For `COc1ccc(-c2nc(Nc3ccc(F)cc3)c3c4c(sc3n2)CCCC4)cc1`, the IC50 was 11.4 µM in assay [1], 1.97 µM in assay [2], > 100 µM in assay [3] and > 100 µM in [4].
With `O=C(C/C(=C/c1cccc([N+](=O)[O-])c1)c1n[nH]c(=S)o1)c1ccc(Cl)c(Cl)c1`, the IC50 in assay [1] amounted to 10.4 µM; in assay [5], 1.63 µM.
`Clc1ccc(-c2nn(-c3ccccc3)cc2/C=N/Nc2ncnc3c(-c4ccccc4)csc23)cc1` came in with an IC50 in [6] of 0.048 µM. Moreover, the Ratio IC50 in [7] stood at 248.
The molecule `CCn1c(-n2cc(/C=N/N=c3\scc(-c4ccc(Br)cc4)n3-c3ccccc3)c(-c3ccc(Cl)cc3)n2)nc2[nH]c(=O)n(C)c(=O)c21` returned an IC50 in assay [8] of 1.76 µM.
Turning to `Fc1ccc(Nc2nc(-c3ccc(Cl)cc3)nc3sc4c(c23)CCCC4)cc1`, the IC50 in assay [1] is 5.82 µM; in [2], 4.81 µM; in [4], > 100 µM.
Take `COc1cc(-c2nc(Nc3ccc(C)cc3)c3c4c(sc3n2)CCCC4)cc(OC)c1OC`: the IC50 in assay [9] was > 100 µM; in assay [1], 8.5 µM; in assay [2], 2.66 µM; in assay [3] it was > 100 µM; in assay [4] it was > 100 µM.
Turning to `COc1cc(-c2nc(Nc3ccc(F)cc3)c3c4c(sc3n2)CCCC4)cc(OC)c1OC`, the half-inhibitory concentration (IC50) in assay [1] was 10.9 µM; in assay [2], 2.29 µM; in [10] it was 168 µM; in assay [3], > 100 µM.
Regarding `O=[N+]([O-])c1ccc(-c2nc(Nc3ccc(Br)cc3)c3c4c(sc3n2)CCCC4)cc1`, the IC50 was 9.87 µM in assay [1], 3.41 µM in assay [2], > 100 µM in [10] and > 100 µM in assay [3].
As for `COc1ccc(-c2nc(NNc3ncnc4sc5c(c34)CCCC5)c3c4c(sc3n2)CCCC4)cc1`, the IC50 in assay [1] was 11.3 µM; in [2], 1.86 µM; in assay [3], > 100 µM.
As for `O=c1[nH]/c(=C\c2nnc(-c3ccc(O)cc3)s2)s/c1=C\c1ccc(Cl)c(Cl)c1`, the IC50 is 15.4 µM in assay [1] and 11.9 µM in [2].
For the molecule `COc1ccc(-c2nc(Nc3ccc(Br)cc3)c3c4c(sc3n2)CCCC4)cc1`, the IC50 is 9.53 µM in assay [1], 2.4 µM in assay [2] and > 100 µM in [3].
Turning to `CCn1c(-n2cc(/C=N/N=c3\scc(-c4ccc(Br)cc4)n3-c3ccccc3)c(-c3ccc(OC)cc3)n2)nc2[nH]c(=O)n(C)c(=O)c21`, the midpoint of inhibition in assay [8], the IC50, lay at 1.82 µM.
With `Clc1ccc(-c2nc(Nc3cccc(Br)c3)c3c4c(sc3n2)CCCC4)cc1`, the IC50 was > 100 µM in [9], 8.55 µM in [1], 3.36 µM in [2] and > 100 µM in [3].
For `CS(=O)(=O)c1ccc(C2CN(c3ccc(C(F)(F)F)cc3)N=N2)cc1` (centres undefined), 0.226 µM corresponded to half-maximal inhibition in assay [11] (IC50).
Consider `CSc1nnc2n(Cc3ccccc3)c(=O)c3c4c(sc3n12)CCCC4`, for which the Ratio IC50 in assay [12] was 192. The molecule further came in with a half-maximal inhibitory concentration (IC50) in [13] of 0.52 µM.
Take `Cc1ccc(Nc2nc(-c3ccc(Cl)cc3)nc3sc4c(c23)CCCC4)cc1`: the IC50 in [9] was > 100 µM; in assay [1], 8.2 µM; in assay [2], 4.49 µM; in [3] it was > 100 µM.
Take `O=[N+]([O-])c1ccc(-c2nc(Nc3ccc(F)cc3)c3c4c(sc3n2)CCCC4)cc1`: the IC50 in [1] is 7.18 µM; in assay [2], 3.63 µM; in [3] it was > 100 µM.
